For one data set, the system named is MOLM14 cells. In words: Proliferation assay (spheroid assay), MOLM14. Format: cell-based. As to conditions: Homo sapiens, MOLM-14, 192 h, 8 days; read-out: spheroid assay_MOLM14 IC50. How it is done:
The anti-proliferative effect of menin/MLL protein/protein interaction inhibitor test compounds was assessed in human leukemia cell lines. The cell line MOLM14 harbors a MLL translocation and expresses the MLL fusion protein MLL-AF9, respectively, as well as the wildtype protein from the second allele. OCI-AML3 cells that carry the NPM1c gene mutation were also tested. […] KO-52 was used as a control cell line containing two MLL (KMT2A) wildtype alleles in order to exclude compounds that display general cytotoxic effects.
MOLM14 cells were cultured in RPMI-1640 (Sigma Aldrich) supplemented with 10% heat-inactivated fetal bovine serum (HyClone), 2 mM L-glutamine (Sigma Aldrich) and 50 μg/ml gentamycin (Gibco). KO-52 and OCI-AML3 cell lines were propagated in alpha-MEM (Sigma Aldrich) supplemented with 20% heat-inactivated fetal bovine serum (HyClone), 2 mM L-glutamine (Sigma Aldrich) and 50 µg/ml gentamycin (Gibco).
In order to assess the anti-proliferative effects, 200 MOLM14 cells, […] or 300 KO-52 cells were seeded in 200 μl media per well in 96-well round bottom, ultra-low attachment plates (Costar, catalogue number 7007). Cell seeding numbers were chosen based on growth curves to ensure linear growth throughout the experiment. Test compounds were added at different concentrations and the DMSO content was normalized to 0.3%. Cells were incubated for 8 days at 37° C. and 5% CO2. Spheroid like growth was measured in real-time by live-cell imaging (IncuCyteZOOM, Essenbio, 4× objective) acquiring images at day 8. Confluence (%) as a measure of spheroid size was determined using an integrated analysis tool.
In order to determine the effect of the test compounds over time, the confluence in each well as a measure of spheroid size, was calculated. Confluence of the highest dose of a reference compound was used as baseline for the LC (Low control) and the confluence of DMSO treated cells was used as 0% cytotoxicity (High Control, HC).
Absolute IC50 values were calculated as percent change in confluence as follows: • LC=Low Control: cells treated with e.g. […] of the cytotoxic agent staurosporin, or e.g. cells treated with a high concentration of an alternative reference compound • HC=High Control: Mean confluence (%) (DMSO treated cells)
GraphPad Prism (version 7.00) was used to calculate the IC50. Dose-response equation was used for the plot of % Effect vs Log 10 compound concentration with a variable slope and fixing the maximum to 100% and the minimum to 0%.

The next data set concerns MEIS1 mRNA expression. In words: MEIS1 mRNA expression assay (Quantigene Singleplex) in MOLM14. Format: cell-based. As to conditions: Homo sapiens, MOLM-14, 48 h, MOLM14 cells, 48 hours with compound. The protocol:
2b) MEIS1 mRNA Expression Assay
MEIS1 mRNA expression upon treatment of compound was examined by Quantigene Singleplex assay (Thermo Fisher Scientific). This technology allows for direct quantification of mRNA targets using probes hybridizing to defined target sequences of interest and the signal is detected using a Multimode plate reader Envision (PerkinElmer). The MOLM14 cell line was used for this experiment. Cells were plated in 96-well plates at 3,750 cells/well in the presence of increasing concentrations of compounds. After incubation of 48 hours with compounds, cells were lysed in lysis buffer and incubated for 45 minutes at 55° C. Cell lysates were mixed with human MEIS1 specific capture probe or human RPL28 (Ribosomal Protein L28) specific probe as a normalization control, as well as blocking probes. Cell lysates were then transferred to the custom assay hybridization plate (Thermo Fisher Scientific) and incubated for 18 to 22 hours at 55° C. Subsequently, plates were washed to remove unbound materials followed by sequential addition of preamplifiers, amplifiers, and label probe. Signals (=gene counts) were measured with a Multimode plate reader Envision. IC50s were calculated by dose-response modelling using appropriate software. For all non-housekeeper genes response equal counts corrected for background and relative expression. For each sample, each test gene signal (background subtracted) was divided by the normalization gene signal (RPL28: background subtracted). Fold changes were calculated by dividing the normalized values for the treated samples by the normalized values for the DMSO treated sample. Fold changes of each target gene were used for the calculation of IC50s.

For data set [1], the target named is T1, Menin/MLL (terbium chelate-labeled menin, FITC-MBM1 peptide) (Homo sapiens, UniProt O00255, T541A).
T1 construct: Menin (a.a 1-610-6×his tag)
T1 sequence (O00255 with tags, fused parts or gaps T541A): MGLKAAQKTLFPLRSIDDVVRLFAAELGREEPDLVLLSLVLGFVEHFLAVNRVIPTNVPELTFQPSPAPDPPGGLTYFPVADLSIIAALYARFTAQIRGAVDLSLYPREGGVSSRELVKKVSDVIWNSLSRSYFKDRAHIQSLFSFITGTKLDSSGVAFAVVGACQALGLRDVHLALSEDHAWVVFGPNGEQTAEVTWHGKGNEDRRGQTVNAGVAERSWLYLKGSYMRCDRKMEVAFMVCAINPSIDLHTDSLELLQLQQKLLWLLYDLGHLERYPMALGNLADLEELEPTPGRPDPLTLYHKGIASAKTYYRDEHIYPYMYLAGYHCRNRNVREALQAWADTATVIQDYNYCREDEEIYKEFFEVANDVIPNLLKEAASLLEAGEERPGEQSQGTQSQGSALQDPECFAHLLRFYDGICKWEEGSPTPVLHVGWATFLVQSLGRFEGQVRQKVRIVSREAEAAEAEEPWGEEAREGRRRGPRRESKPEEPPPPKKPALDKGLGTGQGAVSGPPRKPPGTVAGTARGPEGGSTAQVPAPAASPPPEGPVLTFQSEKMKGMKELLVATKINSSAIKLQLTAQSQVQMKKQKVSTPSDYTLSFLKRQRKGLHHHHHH
In words: Menin/MLL homogenous time-resolved fluorescence (HTRF) assay. The format is binding. The following applies: 30 min incubation of test compound with terbium chelate-labeled menin. How it is done:
1) Menin/MLL Homogenous Time-Resolved Fluorescence (HTRF) Assay
To an untreated, white 384-well microtiter plate was added 40 nL 200× test compound in DMSO and 4 μL 2× terbium chelate-labeled menin (vide infra for preparation) in assay buffer (40 mM Tris·HCl, pH 7.5, 50 mM NaCl, 1 mM DTT (dithiothreitol) and 0.05% Pluronic F-127). After incubation of test compound and terbium chelate-labeled menin for 30 min at ambient temperature, 4 μL 2×FITC-MBM1 peptide (FITC-O-alanine-[…]-NH2) (“FITC” means fluorescein isothiocyanate) in assay buffer was added, the microtiter plate centrifuged at 1000 rpm for 1 min and the assay mixtures incubated for 15 min at ambient temperature. The relative amount of menin-FITC-MBM1 complex present in an assay mixture is determined by measuring the homogenous time-resolved fluorescence (HTRF) of the terbium/FITC donor/acceptor fluorphore pair using an EnVision microplate reader (ex. 337 nm/terbium em. 490 nm/FITC em. 520 nm) at ambient temperature. The degree of fluorescence resonance energy transfer (the HTRF value) is expressed as the ratio of the fluorescence emission intensities of the FITC and terbium fluorophores (F^em 520 nm/F^em 490 nm). […]
Compound potencies were determined by first calculating % inhibition at each compound concentration according to equation 1: […]

The nature of data set [2]: Dynamic vapor sorption (DVS) moisture sorption analysis. Format: physicochemical. The protocol:
Dynamic Vapor Sorption (DVS) The moisture sorption analysis (DVS) was performed using a ProUmid GmbH & Co. KG Vsorp Enhanced dynamic vapor sorption apparatus. The moisture profile was evaluated by monitoring vapor adsorption/desorption over the range of 0 to 90% relative humidity at 25° C. The sample weight equilibrium criteria were set at 0.01% change in 45 min with minimum and maximum time of acclimation at 50 min and 120 min, respectively. The moisture profile consisted of 2 cycles of vapor adsorption/desorption.

Where [3] appears, read: common ambient RH of 40% to 75%.

pIC50: −log10 of the molar value.

As for `CNC(=O)N1CCC(CN2CC[C@H](Cc3cn(-c4ccc(F)cc4C(=O)N(C)C(C)C)c4cncc(C)c34)C2)CC1` (single isomer, unassigned) [Compound 101], the pIC50 was 7.39 in the data set with MOLM14 cells and 8.15 in the data set on MEIS1 mRNA expression.

For the compound `COCC(=O)N1CCC(C(C)N2CCC(Cc3cn(-c4ccc(F)cc4C(=O)N(C)C(C)C)c4cncc(C)c34)C2)CC1` (single isomer, unassigned) [Compound 117a], the pIC50 is 8.30 in the data set with MOLM14 cells and 8.15 in the data set with MEIS1 mRNA expression.

The compound `CC(=O)N1CC[C@@H](N2CC(Cc3cn(-c4ccc(F)cc4C(=O)N(C)C(C)C)c4cncc(C)c34)C2)C[C@H]1C` (single isomer, unassigned) [Compound 292a] showed a pIC50 in data set [1] of 9.88.

`CC(=O)N1C[C@H]2CC(N3CC(Cc4cn(-c5ccc(F)cc5C(=O)N(C)C(C)C)c5cncc(C)c45)C3)C[C@H]2C1` (single isomer, unassigned) [Compound 294a]: the values for the pIC50 (in data set [1]; in the data set on MEIS1 mRNA expression) were 9.63 and 6.44, respectively.

Take `CC(=O)N1CCC(CN2CC[C@@H](Cc3cn(-c4ccc(F)cc4C(=O)N(C)C(C)C)c4cncc(C)c34)C2)CC1.Cl` [Compound 51a]: in data set [2] (2 cycles of vapor adsorption/desorption), the “solid-state form stability after the DVS test (XRPD)” value is “No indication of a solid-state form change was observed”. Also, in data set [2] (setting [3]), the “total moisture mass at equilibrium” value is given as 8.5-9.5% and the “water content at equilibrium” value is given as “around 3 equivalents of water”. Also, the “hygroscopicity (DVS change in mass)” value in data set [2] (crystalline HCl salt Form, 0 to 90% relative humidity at 25° C.) is listed as “hygroscopic”. For the same compound, the “moisture adsorbed and desorbed, by mass on average” value in data set [2] (humidity range of 20-90% RH, 25° C., slowly and reversibly) is reported as “up to 2.5%”.

With `CC(=O)N1CCC(N2CC[C@H](Cc3cn(-c4ccc(F)cc4C(=O)N(C)C(C)C)c4cncc(C)c34)C2)CC1` [Compound 156], the pIC50 with MOLM14 cells is 7.38; in the data set on MEIS1 mRNA expression, 6.73.

Take `Cc1cncc2c1c(CC1CN(CC3CCNC(=O)C3)C1)cn2-c1ccc(F)cc1C(=O)N(C)C(C)C` (stereo not shown) [Compound 196]: in the data set on MEIS1 mRNA expression, the pIC50 is 6.36.

For `CC(=O)N1CC2CC(N3CC(Cc4cn(-c5ccc(F)cc5C(=O)N(C)C(C)C)c5cncc(C)c45)C3)CC2C1` (stereo not shown) [Compound 294b], in the data set on MEIS1 mRNA expression, the pIC50 was 6.82.

Values taken from US20260191835A1, “COMBINATIONS COMPRISING A MENIN-MLL INHIBITOR AND AT LEAST ONE OTHER THERAPEUTIC AGENT” (JANSSEN PHARMACEUTICA NV, priority 2022, published 2026).
